Measurements as given in patent publication US20140295012A1, “LATENT HUMAN IMMUNODEFICIENCY VIRUS REACTIVATION” (priority 2011, published 2014).
Several values for one entry are separate records, joined by “and”; a condition that tells them apart may be missing. Identical values can stand only once. *1 amine or outer side, *2 acyl side, *3 side chain or, on linkers, in order; H or OH if unused. Where a SMILES comes first, the peptide text is derived from it. Bridges are numbered along the chain shown (N, C = ends). Roman numbers before positions name the chains, in order. [ ]: non-standard residue; d: D form. Actinocin(9to1) = Cc1c2oc3c(C)ccc(C(=O)[*:1])c3nc-2c(C(=O)[*:2])c(N)c1=O; NMeV = CN[C@H](C(=O)O)C(C)C; Sar = CNCC(=O)O

Legend:
Format in all cases: cell-based
[1] = system: latently HIV-1 infected CA5 T cells
Method: Infection levels in the cell cultures were monitored by flow cytometric analysis of EGFP expression. Flow cytometric analysis was performed on a GUAVA EasyCyte (Millipore; Billerica, Mass.), or a LSRII (Becton & Dickinson; Franklin Lakes, N.J.).
Bacterial growth. Bacteria from various sources were isolated on TSA II agar plates containing 5% sheep blood. Bacterial isolates were then grown in RPMI 1640 medium supplemented with 10% FBS. After two days of incubation at 37° C. bacteria were pelleted and resuspended in RPMI medium to an optical density (OD600) of 8, aliquoted and frozen at −80° C. Unless otherwise indicated, Massilia timonae was grown in RPMI 1640 medium supplemented with 10% FBS. Typically, medium was inoculated with Massilia timonae from frozen stocks to an OD600 of 0.01. After 48 hours at 37° C., the culture was centrifuged at 3200 g to separate bacteria from the culture medium. Bacteria were resuspended in fresh medium to an OD600 of 8 and frozen to be used as references and stock cultures. The supernatant was then centrifuged at 10,000 g for 20 minutes and sterilized by passage through a 0.2 μm PVDF filter with low protein binding ability. HRF activity was determined by its ability to reactivate latent HIV-1 infection in CA5 cells. Only supernatants of which 6 μl reactivated infection in at least 60% of CA5 cells were used to study HRF properties.
Flow cytometry. Infection levels in the cell cultures were monitored by flow cytometric (FCM) analysis of GFP expression. FCM analysis was performed on a GUAVA EasyCyte (GUAVA Technologies, Inc.; Millipore; Billerica, Mass.) and a BD FACSCalibur or a LSRII (Becton & Dickinson; Franklin Lakes, N.J.). Cell sorting experiments were performed using a FACSAria™ Flow Cytometer (Becton&Dickinson). Data analysis was performed using either CellQuest (Becton&Dickinson) or GUAVA Express (GUAVA Technologies, Inc.).
To identify the optimal concentration of dactinomycin, CA5 T cells were pretreated with increasing concentrations of dactinomycin (0.0001 and 1 μg/ml), and then left untreated or stimulated with a sub-optimal concentration of HRF or TNF-α. Representative results for stimulation with HRF are depicted in FIG. 3. The chosen HRF concentration has only minimal HIV-1 reactivating effect by itself (15% reactivation over background). Twenty four hours after activator addition, levels of HIV-1 reactivation were determined as the percentage of GFP-positive cells using flow cytometric analysis, which allowed for the simultaneous determination of cell viability. […] Optimal pretreatment time was 18 hours. Maximum reactivation effects were seen 48 hours after stimulation.

[2] = system: latently HIV-2 infected J2574 reporter T cells; assay: Priming of latent HIV-2 infection in J2574 reporter T cells infected with HIV-2 7312A
Method: J2574 reporter T cells were infected with HIV-2 7312A and a latently infected cell population was established (>90% latently infected cells). […] Reactivation levels were determined 24 hours post HRF activation by quantifying the level of GFP-positive cells using flow cytometric analysis.
J2574 reporter T cells were generated by retrovirally transducing Jurkat T cells with a HIV-1 reporter construct (p2574) in which the HIV-1 LTR controls the expression of GFP. The HIV-1 LTR and the GFP gene are separated by a 2,500 base pair (bp) spacer element. Lentiviral particles were produced by transfecting 293T cells with p2574 and supplying gag-pol-rev-tat in trans. VSV-G was used as viral envelope protein. Following lentiviral transduction of Jurkat cells, all cells that spontaneously expressed GFP were removed by cell sorting. The GFP-negative population was then activated with PMA to identify all cells that would harbor an inducible LTR-GFP-LTR integration event. Cells that turned GFP-positive following stimulation were again selected by cell sorting. GFP expression in this population ceased after a few days leaving a population of GFP-negative reporter cells. The amount of founder cells for this population is calculated to represent >50,000 individual integration events.
To determine the ability of dactinomycin to prime a latent HIV-2 infection, a latently HIV-2 infected population of GFP reporter T cells was tested. Briefly, to create the latent HIV-2 infected population, J2574 reporter cells were infected with HIV-2 7312A and a population of latently HIV-2 infected cells was generated by removing the actively infected, GFP-positive cells using a fluorescence activated cell sorter.

[3] = system: latently HIV-1 infected CA5 T cells; remark: listed apart in the source
NF-κB p65 = NF-κB p65 activity in nuclear extracts of Jurkat cells (TransAM NF-κB family ELISA)
Method: (§1) FIGS. 7A-7D are graphs showing the kinetics of HRF-mediated induction of NF-κB activity. Jurkat or latently HIV-1 infected CA5 T cells were stimulated with optimal concentrations of PMA and HRF, and cells were harvested at the indicated time points. Nuclear extracts were generated and (FIGS. 7A and 7C) NF-κB p50 activity and (FIGS. 7B and 7D) NF-κB p65 activity were determined using the TransAM™ NF-κB family ELISA kit (Active Motif; Carlsbad, Calif.).
(§2) Cells were grown in RPMI medium supplemented with 10% FBS and 1% PSG to approximately 5×10^5 cells per milliliter. Cells were centrifuged and resuspended in fresh pre-warmed medium. PMA, HRF and/or JNKiV were added immediately at the indicated concentrations. The final cell density for the assay was 1×10^6 cells per milliliter. The culture flasks were kept in a humidified CO2 incubator at 37° C. For each time point, a 1 ml cell suspension was removed and immediately centrifuged at full speed in a tabletop centrifuge for 30 seconds. […] The protein concentration of the extracts was determined by using the BCA protein assay Kit (ThermoFisher). […] The absorbance at 595 nm was determined using a 96 well plate reader (Synergy HT, BIO-Tek; Winooski, Vt.).
(§3) NF-κB activity in nuclear extracts was quantified using the TransAM™ NF-κB family ELISA kit from Active Motif, Inc. (Carlsbad, Calif.) according to the manufacturer's instructions.

NF-κB p50 = NF-κB p50 activity in nuclear extracts of latent CA5 T cells (TransAM NF-κB family ELISA)
Method: as §1, §2, §3

NF-κB = NF-κB activity measured by GFP production in Jurkat T cells; details: compared with Salmonella typhimurium flagellin
Jurkat T cells = assay: Protection of Jurkat T cells from poly (I:C) induced apoptosis (viability); details: compared with Salmonella typhimurium flagellin
Method: High concentrations of poly (I:C) trigger apoptosis in Jurkat cells and reduce cell viability. Viability of control cells (C) was compared to the viability of cell cultures treated with poly (I:C) (10 μg/ml) and increasing amounts of either flagellin or HRF.

With `Cc1c2oc3c(C)ccc(C(=O)N[C@@H]4C(=O)N[C@H](C(C)C)C(=O)N5CCC[C@H]5C(=O)N(C)CC(=O)N(C)[C@@H](C(C)C)C(=O)O[C@@H]4C)c3nc-2c(C(=O)N[C@@H]2C(=O)N[C@H](C(C)C)C(=O)N3CCC[C@H]3C(=O)N(C)CC(=O)N(C)[C@@H](C(C)C)C(=O)O[C@@H]2C)c(N)c1=O` [dactinomycin] (I: T[dV]P[Sar][NMeV] / II: T[dV]P[Sar][NMeV]; ester I:1-I:C, II:1-II:C; linker I:N-II:N via Actinocin(9to1)) the “priming effect on HIV-1 reactivation by sub-optimal dose of HRF” value ([1]; CA5 cells pretreated with increasing concentrations) was “strong priming effect”, the “concentration of optimal priming activity” value ([1]; pretreatment, then sub-optimal HRF or TNF-α, both T cell lines) was “about 4 ng/ml and ~3.18 nM” and the “concentration range that efficiently primed latent HIV-2 infection for reactivation” value ([2]; 18 hours pretreatment, sub-optimal HRF) was 2 to 8 ng/mL. The HIV-2 reactivation levels ([2]; costimulation: dactinomycin pretreatment plus sub-optimal HRF) was “up to 90%”, the “priming effects with low concentrations of TNF-α or PMA as reactivating agents” value [3] was “Priming effects of dactinomycin were also observed” and the “priming effect for reactivation by TNF-α” value ([3]; CA5 cells, same sense integration, 4 ng/ml, 18 hours pretreatment) was “exerted its priming effect in each integration scenario”. The “concentrations acting as inhibitor of HIV-1 expression and reactivation” value ([3]; observed at the onset of drug toxicities) was at least 10 ng/mL and the “concentrations at which a priming effect was observed” value ([3]; pretreatment, then sub-optimal HRF or TNF-α) was at least 0.5 ng/mL.

B1: HRF: flagellin polypeptide from Massilia timonae (SEQ ID NO:10), used as bacterial culture supernatant (protein)
chain: MASVINTNVPSLNSQRNLSTSQAQLNTSIQRLSSGMRINSAKDDAAGLAISDRMNSQIKGMTQATRNANDGVSMAQTAEGALSSSGDILQRIRELAVQSSNSSNSASDRKALQTEVTQLSSELNRIANTTEFNGQKLMDGTLGTANFQVGANAGQLISMTGANFNTSVYGNNQIAGDAAKAAATTSAAATGAFTISGYLGTSAAINTTDADTAKTIAASINNVTGDTGVTATARTDSFLKSAGGAHTMSLASDNSGTGEAVDISFTVGDGGDTADDYAAAISAFNAQTAKTGVTAEYDAVEKGLKLTNSAGENISLTNKAGSADIDMDTYAADGALMASALTLEAGDVGVANGRVTMDSEKSFSVAEGTDTGFELADSSALKSVAKIDISDFEGAQEAIKVADAALSAVNSQRAEYGALQSRFESAISNLSSSTENLSASRSRIVDTDFAAETAKMTRGQILQQAGTSMLAQANSLPNGVLSLLRG
For B1, the “HIV-1 reactivation over background” value ([1]; sub-optimal HRF concentration by itself) was 15%, the “NF-κB p65 activation amplitude compared to PMA stimulation” value (NF-κB p65) was about 3 fold and the “NF-κB p50 activity after the first 4 hours” value (NF-κB p50) was “stabilizes at an elevated level”. The “NF-κB activity and NF-κB driven gene expression” value (NF-κB) was “lower levels of NF-κB activity and NF-κB driven gene expression than flagellin from Salmonella typhimurium”, the “protection from induced apoptosis” value (Jurkat T cells) was “greater efficacy” and the “HIV-2 reactivation (cells)” value ([2]; sub-optimal dose of HRF by itself) was 10%. For the same molecule, the “efficiency of HIV-1 reactivation” value ([3]; compared with Salmonella typhimurium flagellin) was “same efficiency as Salmonella typhimurium flagellin” and the “potency of activating latent HIV-1 provirus” value ([3]; compared with TNFα or PMA) was “potency comparable to that of TNFα or PMA”.
